Literature values in patent US12637513B2, “Method of treating cancer by administering an inhibitor of erythropoietin receptor activity comprising either erythropoietin receptor or erythropoietin protein” (ImmunEdge, Inc., priority 2022, dated 2026).
Like-named read-outs stand apart in the source and are kept apart here.

Tests used:
HIF-1a = HIF-1a (Homo sapiens, UniProt Q16665); conditions: cited from earlier work
PHD2 = PHD2 (Homo sapiens, UniProt Q9GZT9); conditions: target PHD2; cited from earlier work
Chain of PHD2 (Q9GZT9 whole entry): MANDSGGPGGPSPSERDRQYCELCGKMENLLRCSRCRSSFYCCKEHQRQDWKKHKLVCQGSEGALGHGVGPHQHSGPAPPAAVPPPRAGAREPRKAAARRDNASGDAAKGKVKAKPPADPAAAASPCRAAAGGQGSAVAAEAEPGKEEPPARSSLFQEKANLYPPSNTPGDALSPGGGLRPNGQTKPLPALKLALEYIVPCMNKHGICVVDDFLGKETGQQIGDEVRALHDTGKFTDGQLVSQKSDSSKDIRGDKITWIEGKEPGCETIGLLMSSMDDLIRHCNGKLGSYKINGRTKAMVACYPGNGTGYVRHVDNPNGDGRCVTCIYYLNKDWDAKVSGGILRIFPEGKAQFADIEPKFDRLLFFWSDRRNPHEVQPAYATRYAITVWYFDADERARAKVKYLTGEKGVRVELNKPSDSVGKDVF

HIF-2a = HIF-2a (Homo sapiens, UniProt Q99814); conditions: target HIF-2a; cited from earlier work
Chain of HIF-2a (Q99814 whole entry): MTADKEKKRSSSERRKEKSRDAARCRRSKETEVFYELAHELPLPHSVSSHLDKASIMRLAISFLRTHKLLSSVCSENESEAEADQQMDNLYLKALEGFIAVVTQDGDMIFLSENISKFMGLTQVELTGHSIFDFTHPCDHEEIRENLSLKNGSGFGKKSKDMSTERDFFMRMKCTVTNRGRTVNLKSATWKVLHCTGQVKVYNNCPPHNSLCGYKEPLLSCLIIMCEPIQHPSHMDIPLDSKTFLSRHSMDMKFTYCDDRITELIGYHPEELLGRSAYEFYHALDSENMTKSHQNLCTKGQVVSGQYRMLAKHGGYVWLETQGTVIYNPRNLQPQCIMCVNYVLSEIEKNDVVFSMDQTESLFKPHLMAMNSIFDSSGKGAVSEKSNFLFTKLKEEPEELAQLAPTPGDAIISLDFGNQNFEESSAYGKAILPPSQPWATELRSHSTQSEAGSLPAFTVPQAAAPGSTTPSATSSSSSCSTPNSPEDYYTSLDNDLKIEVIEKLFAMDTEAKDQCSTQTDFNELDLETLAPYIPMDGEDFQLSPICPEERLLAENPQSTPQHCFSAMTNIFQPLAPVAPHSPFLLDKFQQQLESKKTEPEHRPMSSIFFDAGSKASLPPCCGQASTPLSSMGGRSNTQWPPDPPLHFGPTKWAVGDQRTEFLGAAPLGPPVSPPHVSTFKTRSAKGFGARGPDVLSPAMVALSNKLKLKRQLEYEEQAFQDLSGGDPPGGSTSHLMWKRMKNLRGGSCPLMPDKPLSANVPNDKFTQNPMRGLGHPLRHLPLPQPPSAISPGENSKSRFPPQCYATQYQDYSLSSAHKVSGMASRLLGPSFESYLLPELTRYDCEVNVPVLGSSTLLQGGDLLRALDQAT

Chain of HIF-1a (Q16665 whole entry): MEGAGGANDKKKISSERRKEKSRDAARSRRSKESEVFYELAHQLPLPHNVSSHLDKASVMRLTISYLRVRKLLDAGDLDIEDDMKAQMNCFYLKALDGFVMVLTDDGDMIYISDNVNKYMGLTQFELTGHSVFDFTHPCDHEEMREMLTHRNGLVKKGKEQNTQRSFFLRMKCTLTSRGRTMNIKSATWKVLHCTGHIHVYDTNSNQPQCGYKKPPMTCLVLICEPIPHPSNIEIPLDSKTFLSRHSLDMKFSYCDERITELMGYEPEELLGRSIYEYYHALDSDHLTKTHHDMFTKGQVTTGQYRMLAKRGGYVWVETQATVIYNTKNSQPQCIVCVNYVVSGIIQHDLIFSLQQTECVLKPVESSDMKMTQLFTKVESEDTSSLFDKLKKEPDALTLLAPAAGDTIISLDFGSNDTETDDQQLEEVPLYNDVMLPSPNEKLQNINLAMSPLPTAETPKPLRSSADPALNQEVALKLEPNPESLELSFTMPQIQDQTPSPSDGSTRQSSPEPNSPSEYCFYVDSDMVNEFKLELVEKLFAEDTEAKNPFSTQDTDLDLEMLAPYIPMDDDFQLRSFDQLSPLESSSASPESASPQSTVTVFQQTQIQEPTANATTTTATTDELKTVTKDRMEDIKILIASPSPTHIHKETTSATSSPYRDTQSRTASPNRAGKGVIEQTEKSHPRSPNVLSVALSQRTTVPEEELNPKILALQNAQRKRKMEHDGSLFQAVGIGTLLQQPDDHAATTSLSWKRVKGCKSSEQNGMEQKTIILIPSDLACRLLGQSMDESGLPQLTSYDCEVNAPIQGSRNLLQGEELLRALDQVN

For `COC(=O)c1ccc(O)c(NC(=O)COc2ccc(C34CC5CC(CC(C5)C3)C4)cc2)c1` [CAY10585 (LW6)], the IC50 (HIF-1a; read-out: IC50) is listed as 0.7 to 2.6 µM.
For `CN1C(=O)[C@]2(Cc3cn([C@]45C[C@@]67SS[C@@](CO)(C(=O)N6[C@H]4Nc4ccccc45)N(C)C7=O)c4ccccc34)SS[C@@]1(CO)C(=O)N2C` [Chetomin], the IC50 (HIF-1a; target HIF-1a, read-out: IC50) is given as 0.01 µM.
For `CS[C@H]1SC[C@H]2C(=O)N(C)[C@@H](C(C)C)C(=O)OC[C@@H](NC(=O)c3cnc4ccccc4n3)C(=O)N[C@@H](C)C(=O)N(C)[C@@H]1C(=O)N(C)[C@@H](C(C)C)C(=O)OC[C@@H](NC(=O)c1cnc3ccccc3n1)C(=O)N[C@@H](C)C(=O)N2C` [Echinomycin], the IC50 (HIF-1a; target HIF-1a, read-out: IC50) is given as 0.0012 µM.
In the case of `O=C(O)CNC(=O)c1c(O)cc(CCc2ccccc2)n2ncnc12` [Enarodustat], the IC50 (PHD2) is listed as 0.22 to 5.7 µM.
For `Cc1ccc(C(=O)COC(=O)c2cccc(NC(=O)c3ccc([N+](=O)[O-])cc3[N+](=O)[O-])c2)cc1` [FM19G11], the IC50 (HIF-1a; target HIF-1a) is given as 0.08 µM.
In the case of `O=[N+]([O-])c1cc(Nc2ccc3nonc3c2[N+](=O)[O-])ccc1Cl` [HIF-2α-IN-3], the IC50 (HIF-2a) is listed as 0.4 µM.
For `COC(=O)c1sccc1N/N=C(\C#N)S(C)(=O)=O` [HIF-2α-IN-4], the IC50 (HIF-2a) is given as 5 µM.
